{"source": "patent US20110166112A1", "about": "“METHOD FOR STIMULATING PLATELET PRODUCTION” (Eisai, Inc., priority 2009, published 2011)", "tested_on": "subjects with chronic ITP", "experiment": "Recurrence of thrombocytopenia upon discontinuation of E5501 (platelet count below 10,000/mm^3)", "assay_type": "in vivo, human", "conditions": "for Recurrence of thrombocytopenia: Relation To E5501: assessed by the investigator", "protocol": "Recurrence of Thrombocytopenia. Recurrence of thrombocytopenia has been previously reported and is of special interest in this population. Recurrence of thrombocytopenia was defined as a platelet count that decreased to below 10,000/mm^3 upon discontinuation of E5501. In this study, 9 subjects potentially met the criteria for recurrence of thrombocytopenia. Three were deemed serious; all 3 recovered.\nAll 9 cases occurred at an E5501 dose of 10 mg or above, and the majority (n=6/9) occurred within 2 weeks after discontinuation of E5501 (FIG. 3). However, recurrent thrombocytopenia was seen up to 4 weeks after the last dose of study drug.", "note": "Marks after values point to notes of the source that are not given here.", "data": [{"molecule": "O=C(Nc1nc(-c2cc(Cl)cs2)c(N2CCN(C3CCCCC3)CC2)s1)c1cnc(N2CCC(C(=O)O)CC2)c(Cl)c1", "note": "[E5501, 1-(3-chloro-5-{[4-(4-chlorothiophen-2-yl)-5-(4-cyclohexylpiperazin-1-yl)thiazol-2-yl]carbamoyl}pyridine-2-yl)piperidine-4-carboxylic acid]", "values": [{"measurement": "Recurrence of thrombocytopenia: Outcome", "setting": "Subject A, 20-30 mg, 1st entry", "result": "Recovered"}, {"measurement": "Recurrence of thrombocytopenia: Platelet Count", "setting": "Subject A, 20-30 mg, 1st entry", "result": 3, "unit": "K/mm^3"}, {"measurement": "Recurrence of thrombocytopenia: Serious", "setting": "Subject A, 20-30 mg, 1st entry", "result": "No"}, {"measurement": "Recurrence of thrombocytopenia: Study Days (No. Days Posttreatment)", "setting": "Subject A, 20-30 mg, 1st entry", "result": "193 (17) Days"}, {"measurement": "Recurrence of thrombocytopenia: Relation To E5501", "setting": "Subject A, 20-30 mg, 1st entry", "result": "Not related"}, {"measurement": "Recurrence of thrombocytopenia: Outcome", "setting": "Subject A, 20-30 mg, 2nd entry", "result": "Recovered"}, {"measurement": "Recurrence of thrombocytopenia: Platelet Count", "setting": "Subject A, 20-30 mg, 2nd entry", "result": 6, "unit": "K/mm^3"}, {"measurement": "Recurrence of thrombocytopenia: Serious", "setting": "Subject A, 20-30 mg, 2nd entry", "result": "No"}, {"measurement": "Recurrence of thrombocytopenia: Study Days (No. Days Posttreatment)", "setting": "Subject A, 20-30 mg, 2nd entry", "result": "235 (59) Days"}, {"measurement": "Recurrence of thrombocytopenia: Relation To E5501", "setting": "Subject A, 20-30 mg, 2nd entry", "result": "Not related"}, {"measurement": "Recurrence of thrombocytopenia: Outcome", "setting": "Subject A, 20-30 mg, 3rd entry", "result": "Recovered"}, {"measurement": "Recurrence of thrombocytopenia: Platelet Count", "setting": "Subject A, 20-30 mg, 3rd entry", "result": 4, "unit": "K/mm^3"}, {"measurement": "Recurrence of thrombocytopenia: Serious", "setting": "Subject A, 20-30 mg, 3rd entry", "result": "No"}, {"measurement": "Recurrence of thrombocytopenia: Study Days (No. Days Posttreatment)", "setting": "Subject A, 20-30 mg, 3rd entry", "result": "249 (73) Days"}, {"measurement": "Recurrence of thrombocytopenia: Relation To E5501", "setting": "Subject A, 20-30 mg, 3rd entry", "result": "Not related"}, {"measurement": "Recurrence of thrombocytopenia: Platelet Count", "setting": "Subject B, 10 mg", "result": 1, "unit": "K/mm^3"}, {"measurement": "Recurrence of thrombocytopenia: Serious", "setting": "Subject B, 10 mg", "result": "No"}, {"measurement": "Recurrence of thrombocytopenia: Study Days (No. Days Posttreatment)", "setting": "Subject B, 10 mg", "result": "209 (28) Days"}, {"measurement": "Recurrence of thrombocytopenia: Outcome", "setting": "Subject C, 10-20 mg", "result": "Recovered"}, {"measurement": "Recurrence of thrombocytopenia: Platelet Count", "setting": "Subject C, 10-20 mg", "result": 6, "unit": "K/mm^3"}, {"measurement": "Recurrence of thrombocytopenia: Serious", "setting": "Subject C, 10-20 mg", "result": "No"}, {"measurement": "Recurrence of thrombocytopenia: Study Days (No. Days Posttreatment)", "setting": "Subject C, 10-20 mg", "result": "182 (14) Days"}, {"measurement": "Recurrence of thrombocytopenia: Relation To E5501", "setting": "Subject C, 10-20 mg", "result": "Probably"}, {"measurement": "Recurrence of thrombocytopenia: Outcome", "setting": "Subject D, 20 mg", "result": "Recovered"}, {"measurement": "Recurrence of thrombocytopenia: Platelet Count", "setting": "Subject D, 20 mg", "result": 1, "unit": "K/mm^3"}, {"measurement": "Recurrence of thrombocytopenia: Serious", "setting": "Subject D, 20 mg", "result": "Serious"}, {"measurement": "Recurrence of thrombocytopenia: Study Days (No. Days Posttreatment)", "setting": "Subject D, 20 mg", "result": "193 (10) Days"}, {"measurement": "Recurrence of thrombocytopenia: Relation To E5501", "setting": "Subject D, 20 mg", "result": "Not related"}, {"measurement": "Recurrence of thrombocytopenia: Platelet Count", "setting": "Subject E, 10 mg", "result": 8, "unit": "K/mm^3"}, {"measurement": "Recurrence of thrombocytopenia: Serious", "setting": "Subject E, 10 mg", "result": "No"}, {"measurement": "Recurrence of thrombocytopenia: Study Days (No. Days Posttreatment)", "setting": "Subject E, 10 mg", "result": "209 (7) Days"}, {"measurement": "Recurrence of thrombocytopenia: Outcome", "setting": "Subject F, 20 mg", "result": "Recovered"}, {"measurement": "Recurrence of thrombocytopenia: Platelet Count", "setting": "Subject F, 20 mg", "result": 8, "unit": "K/mm^3"}, {"measurement": "Recurrence of thrombocytopenia: Serious", "setting": "Subject F, 20 mg", "result": "Serious"}, {"measurement": "Recurrence of thrombocytopenia: Study Days (No. Days Posttreatment)", "setting": "Subject F, 20 mg", "result": "192 (11) Days"}, {"measurement": "Recurrence of thrombocytopenia: Relation To E5501", "setting": "Subject F, 20 mg", "result": "Not related"}, {"measurement": "Recurrence of thrombocytopenia: Outcome", "setting": "Subject G, 2.5-12.5 mg", "result": "Recovered"}, {"measurement": "Recurrence of thrombocytopenia: Serious", "setting": "Subject G, 2.5-12.5 mg", "result": "Serious"}, {"measurement": "Recurrence of thrombocytopenia: Study Days (No. Days Posttreatment)", "setting": "Subject G, 2.5-12.5 mg", "result": "179 (13) Days"}, {"measurement": "Recurrence of thrombocytopenia: Relation To E5501", "setting": "Subject G, 2.5-12.5 mg", "result": "Probably"}, {"measurement": "Recurrence of thrombocytopenia: Platelet Count", "setting": "Subject G, 2.5-12.5 mg, recorded 3 days before the event", "result": "16^g K/mm^3"}, {"measurement": "Recurrence of thrombocytopenia: Outcome", "setting": "Subject H, 10-40 mg", "result": "Recovered"}, {"measurement": "Recurrence of thrombocytopenia: Platelet Count", "setting": "Subject H, 10-40 mg", "result": 4, "unit": "K/mm^3"}, {"measurement": "Recurrence of thrombocytopenia: Serious", "setting": "Subject H, 10-40 mg", "result": "No"}, {"measurement": "Recurrence of thrombocytopenia: Study Days (No. Days Posttreatment)", "setting": "Subject H, 10-40 mg", "result": "143 (16) Days"}, {"measurement": "Recurrence of thrombocytopenia: Relation To E5501", "setting": "Subject H, 10-40 mg", "result": "Not related"}, {"measurement": "Recurrence of thrombocytopenia: Outcome", "setting": "Subject I, 10-20 mg, 1st entry", "result": "Recovered"}, {"measurement": "Recurrence of thrombocytopenia: Platelet Count", "setting": "Subject I, 10-20 mg, 1st entry", "result": 8, "unit": "K/mm^3"}, {"measurement": "Recurrence of thrombocytopenia: Serious", "setting": "Subject I, 10-20 mg, 1st entry", "result": "No"}, {"measurement": "Recurrence of thrombocytopenia: Study Days (No. Days Posttreatment)", "setting": "Subject I, 10-20 mg, 1st entry", "result": "181 (13) Days"}, {"measurement": "Recurrence of thrombocytopenia: Relation To E5501", "setting": "Subject I, 10-20 mg, 1st entry", "result": "Not related"}, {"measurement": "Recurrence of thrombocytopenia: Outcome", "setting": "Subject I, 10-20 mg, 2nd entry", "result": "Recovered"}, {"measurement": "Recurrence of thrombocytopenia: Platelet Count", "setting": "Subject I, 10-20 mg, 2nd entry", "result": 9, "unit": "K/mm^3"}, {"measurement": "Recurrence of thrombocytopenia: Serious", "setting": "Subject I, 10-20 mg, 2nd entry", "result": "No"}, {"measurement": "Recurrence of thrombocytopenia: Study Days (No. Days Posttreatment)", "setting": "Subject I, 10-20 mg, 2nd entry", "result": "233 (65) Days"}, {"measurement": "Recurrence of thrombocytopenia: Relation To E5501", "setting": "Subject I, 10-20 mg, 2nd entry", "result": "Not related"}, {"measurement": "recurrences of thrombocytopenia deemed serious", "setting": "in vivo", "result": "Three"}, {"measurement": "recurrences of thrombocytopenia within 2 weeks after discontinuation of E5501", "setting": "of 9 cases", "result": 6, "unit": "n"}, {"measurement": "subjects who potentially met the criteria for recurrence of thrombocytopenia", "setting": "upon discontinuation, E5501 dose of 10 mg or above", "result": 9, "unit": "subjects"}]}]}
